Data reported in article PMC11331138, “Leveraging coevolutionary insights and AI-based structural modeling to unravel receptor–peptide ligand-binding mechanisms” (Proceedings of the National Academy of Sciences of the …, 2024).

T1: MIK2 (MALE DISCOVERER 1-INTERACTING RECEPTOR-LIKE KINASE 2) ectodomain, wild type (Arabidopsis thaliana, UniProt Q8VZG8 44-709)
T1 chain: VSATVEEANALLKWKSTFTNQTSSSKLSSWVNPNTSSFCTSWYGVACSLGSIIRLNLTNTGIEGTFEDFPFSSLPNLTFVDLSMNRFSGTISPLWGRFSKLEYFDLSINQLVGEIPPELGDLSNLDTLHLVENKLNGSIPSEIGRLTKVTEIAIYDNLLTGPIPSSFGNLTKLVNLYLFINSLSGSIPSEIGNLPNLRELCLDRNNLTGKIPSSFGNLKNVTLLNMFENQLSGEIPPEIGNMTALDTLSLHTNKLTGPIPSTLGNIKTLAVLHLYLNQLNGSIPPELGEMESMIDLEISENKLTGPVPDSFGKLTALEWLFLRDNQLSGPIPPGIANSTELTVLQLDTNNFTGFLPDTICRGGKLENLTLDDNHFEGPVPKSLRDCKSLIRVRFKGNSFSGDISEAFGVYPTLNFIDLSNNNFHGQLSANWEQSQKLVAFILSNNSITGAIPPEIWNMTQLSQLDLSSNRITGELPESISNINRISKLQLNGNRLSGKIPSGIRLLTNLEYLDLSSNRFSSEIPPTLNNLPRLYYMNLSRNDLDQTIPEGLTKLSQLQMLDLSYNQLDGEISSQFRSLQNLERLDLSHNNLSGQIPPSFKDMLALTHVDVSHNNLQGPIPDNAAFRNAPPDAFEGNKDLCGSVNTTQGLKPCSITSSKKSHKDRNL

B1: SCOOP12 (SERINE RICH ENDOGENOUS PEPTIDE 12), synthetic peptide (peptide)
chain: PVRSSQSSQAGGR

What was measured:
B. rapa MIK2 = experiment: ROS production, B. rapa MIK2 expressed in N. benthamiana; assay type: cell-based, Brassica rapa; conditions: 1 μM SCOOP
Experimental: (§1) removed and ROS production was measured upon addition of a 100-μL assay solution which contained 10 μg/mL
(§2) horseradish peroxidase (P6782, Merck), 10 mM luminol and the treatment (1 μM SCOOP, 0.1 μM flg22 or H2O).
(§3) Luminescence was quantified with a HIGH-RESOLUTION PHOTON COUNTING SYSTEM (HRPCS218, Photek). Four
(§4) technical replicates per biological replicate (specified in Fig. S2) were quantified for each treatment, significant
(§5) differences were determined by performing a two-group Mann-Whitney U Test between each SCOOP treatment
(§6) and the mock treatment. R and the R-packages dplyr (v1.1.2), ggpubr (v.0.6.0), and ggplot2 (v3.4.2) were used to
(§7) analyze and plot the data. The resulting figure was edited in Corel-DRAW Home & Student x7.
(§8) Functional validation MIK2 homologues
(§9) All constructs were created using a hierarchical modular cloning approach facilitated by the MoClo toolkit and the
(§10) MoClo Plant Parts kit (25, 26). For recombinant expression, we used the previously published Arabidopsis MIK2
(§11) sequence (L0 level backbone, CZLp4829) (27), and MIK2 homologues were synthesized with domesticated BsaI […]
(§12) while using diverse Arabidopsis SCOOPs (AA sequences, Dataset S1) and fl g22. Biological replicates were quantified […]
(§13) H2O and rested for a minimum of 30 min in the dark. Two readings were taken in a TECAN SPARK plate reader every […]

Arabidopsis Col-0 = conditions: selection criterion; ref [17]; cited from earlier work
Text: To test the conservation of plant responses to SCOOPs, we measured the production of ROS—a hallmark of LRR-RK activation—triggered by SCOOPs. […] The SCOOP SxS motif is unique across known plant-secreted signaling peptides in contrast to the N-terminal asparag ... || The S5 and S7 binding pockets were functionally validated by testing MIK2 variants using three experimental approaches; A) SCOOP12-binding to MIK2 ectodomain in vitro, B) SCOOP12-induced complex formation with its coreceptor BAK1 in vivo, and C) ROS production upon SCOOP treatments as a marker for receptor complex activation (Fig. 4 and SI Appendix, Fig. S6).

D. strictus MIK2 = experiment: ROS production, D. strictus MIK2 expressed in N. benthamiana; assay type: cell-based, Diptychocarpus strictus; conditions: 1 μM SCOOP
Experimental: as §1, §2, §3, §4, §5, §6, §7, §8, §9, §10, §11, §12, §13

R. islandica MIK2 = experiment: ROS production, R. islandica MIK2 expressed in N. benthamiana; assay type: cell-based, Rorippa islandica; conditions: 1 μM SCOOP
Experimental: as §1, §2, §3, §4, §5, §6, §7, §8, §9, §10, §11, §12, §13

[1] = target: T1, MIK2 (MALE DISCOVERER 1-INTERACTING …); experiment: ITC
[2] = target: MIK2 ectodomain S292A (S7 binding pocket variant) (Arabidopsis thaliana, UniProt Q8VZG8 44-709, S292A); experiment: ITC
Chain of MIK2 ectodomain S292A (S7 binding pocket variant) (Q8VZG8 44-709 S292A): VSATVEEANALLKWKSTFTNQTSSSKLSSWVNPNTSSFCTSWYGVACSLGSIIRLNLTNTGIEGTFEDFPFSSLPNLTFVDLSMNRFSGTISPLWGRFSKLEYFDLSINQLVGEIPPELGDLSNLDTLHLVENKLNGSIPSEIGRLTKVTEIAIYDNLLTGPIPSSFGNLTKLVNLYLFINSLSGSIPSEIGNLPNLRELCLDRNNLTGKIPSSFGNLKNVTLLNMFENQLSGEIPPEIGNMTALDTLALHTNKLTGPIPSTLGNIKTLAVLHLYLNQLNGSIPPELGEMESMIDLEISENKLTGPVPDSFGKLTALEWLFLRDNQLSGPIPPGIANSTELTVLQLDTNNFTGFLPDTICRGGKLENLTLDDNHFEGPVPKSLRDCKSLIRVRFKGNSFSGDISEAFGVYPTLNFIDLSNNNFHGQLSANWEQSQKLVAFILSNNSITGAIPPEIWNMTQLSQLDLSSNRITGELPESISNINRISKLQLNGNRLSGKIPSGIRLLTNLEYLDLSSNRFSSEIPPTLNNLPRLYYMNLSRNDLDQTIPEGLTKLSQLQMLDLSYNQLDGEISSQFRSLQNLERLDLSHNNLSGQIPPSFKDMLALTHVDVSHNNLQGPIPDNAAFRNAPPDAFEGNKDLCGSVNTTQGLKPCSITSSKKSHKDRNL

Molecule	SCOOP-induced ROS production (in words) (B. rapa MIK2)	ROS production upon SCOOP treatment in Arabidopsis (Arabidopsis Col-0)	SCOOP-induced ROS production (in words) (D. strictus MIK2)	SCOOP-induced ROS production (in words) (R. islandica MIK2)	Kd [1] [µM]	Kd [2] [µM]
RVPRSKSPPDRQW [SCOOP24]	did not lead to significant ROS production	robust ROS production	–	–	–	–
YVPPSKSRRGKGP [SCOOP16]	–	robust ROS production	conferred responsiveness	conferred responsiveness	–	–
B1	–	–	–	–	2.12	1.24
